Assay results: patent US20110105623A1 (Biogenic Innovations, LLC, priority 2009, published 2011)

Assays:
[1] = test system: Lactobacillus acidophilus; assay: Probiotic growth in media supplemented with MSM; type: cell-based; details: […] MSM
Source text: (§1) Plates were then counted. […] Data are presented in Cfu/mL.

Bacillus coagulans = assay: Probiotic growth in media supplemented with MSM; type: cell-based
Source text: as §1

Substance: Methylsulfonylmethane [MSM]
- Growth of Lactobacillus acidophilus ([1]; 8 h): 2.20 log10 CFU/mL
- Growth of Lactobacillus acidophilus ([1]; 16 h): 4.24 log10 CFU/mL
- Growth of Lactobacillus acidophilus ([1]; 24 h): 5.78 log10 CFU/mL
- Growth of Lactobacillus acidophilus ([1]; 32 h): 9.16 log10 CFU/mL
- Growth of Lactobacillus acidophilus ([1]; 40 h): 9.35 log10 CFU/mL
- Growth of Lactobacillus acidophilus ([1]; 48 h): 10.16 log10 CFU/mL
- Growth of Lactobacillus acidophilus ([1]; 56 h): 11.10 log10 CFU/mL
- Growth of Lactobacillus acidophilus ([1]; 64 h): 11.58 log10 CFU/mL
- Growth of Lactobacillus acidophilus ([1]; 72 h): 8.44 log10 CFU/mL
- Growth of Bacillus coagulans (Bacillus coagulans; 0.125% MSM, 0 h): 1.52 log10 CFU/mL
- Growth of Bacillus coagulans (Bacillus coagulans; 0.125% MSM, 8 h): 4.81 log10 CFU/mL
- Growth of Bacillus coagulans (Bacillus coagulans; 0.125% MSM, 16 h): 6.95 log10 CFU/mL
- Growth of Bacillus coagulans (Bacillus coagulans; 0.125% MSM, 24 h): 9.87 log10 CFU/mL
- Growth of Bacillus coagulans (Bacillus coagulans; 0.125% MSM, 32 h): 11.06 log10 CFU/mL
- Growth of Bacillus coagulans (Bacillus coagulans; 0.125% MSM, 40 h): 11.72 log10 CFU/mL
- Growth of Bacillus coagulans (Bacillus coagulans; 0.125% MSM, 48 h): 11.56 log10 CFU/mL
- Growth of Bacillus coagulans (Bacillus coagulans; 0.125% MSM, 56 h): 9.60 log10 CFU/mL
- Growth of Bacillus coagulans (Bacillus coagulans; 0.125% MSM, 64 h): 12.13 log10 CFU/mL
- Growth of Bacillus coagulans (Bacillus coagulans; 0.125% MSM, 72 h): 10.14 log10 CFU/mL
- Growth of Bacillus coagulans (Bacillus coagulans; 0.2% MSM, 0 h): 1.67 log10 CFU/mL
- Growth of Bacillus coagulans (Bacillus coagulans; 0.2% MSM, 8 h): 4.94 log10 CFU/mL
- Growth of Bacillus coagulans (Bacillus coagulans; 0.2% MSM, 16 h): 7.19 log10 CFU/mL
- Growth of Bacillus coagulans (Bacillus coagulans; 0.2% MSM, 24 h): 10.34 log10 CFU/mL
- Growth of Bacillus coagulans (Bacillus coagulans; 0.2% MSM, 32 h): 11.25 log10 CFU/mL
- Growth of Bacillus coagulans (Bacillus coagulans; 0.2% MSM, 40 h): 11.34 log10 CFU/mL
- Growth of Bacillus coagulans (Bacillus coagulans; 0.2% MSM, 48 h): 9.94 log10 CFU/mL
- Growth of Bacillus coagulans (Bacillus coagulans; 0.2% MSM, 56 h): 11.45 log10 CFU/mL
- Growth of Bacillus coagulans (Bacillus coagulans; 0.2% MSM, 64 h): 11.37 log10 CFU/mL
- Growth of Bacillus coagulans (Bacillus coagulans; 0.2% MSM, 72 h): 10.94 log10 CFU/mL
- Growth of Bacillus coagulans (Bacillus coagulans; 0.50% MSM, 0 h): 1.48 log10 CFU/mL
- Growth of Bacillus coagulans (Bacillus coagulans; 0.50% MSM, 8 h): 4.42 log10 CFU/mL
- Growth of Bacillus coagulans (Bacillus coagulans; 0.50% MSM, 16 h): 6.94 log10 CFU/mL
- Growth of Bacillus coagulans (Bacillus coagulans; 0.50% MSM, 24 h): 10.29 log10 CFU/mL
- Growth of Bacillus coagulans (Bacillus coagulans; 0.50% MSM, 32 h): 11.05 log10 CFU/mL
- Growth of Bacillus coagulans (Bacillus coagulans; 0.50% MSM, 40 h): 10.25 log10 CFU/mL
- Growth of Bacillus coagulans (Bacillus coagulans; 0.50% MSM, 48 h): 10.40 log10 CFU/mL
- Growth of Bacillus coagulans (Bacillus coagulans; 0.50% MSM, 56 h): 10.76 log10 CFU/mL
- Growth of Bacillus coagulans (Bacillus coagulans; 0.50% MSM, 64 h): 10.45 log10 CFU/mL
- Growth of Bacillus coagulans (Bacillus coagulans; 0.50% MSM, 72 h): 10.86 log10 CFU/mL
- Growth of Bacillus coagulans (Bacillus coagulans; 1% MSM, 0 h): 1.30 log10 CFU/mL
- Growth of Bacillus coagulans (Bacillus coagulans; 1% MSM, 8 h): 4.98 log10 CFU/mL
- Growth of Bacillus coagulans (Bacillus coagulans; 1% MSM, 16 h): 7.29 log10 CFU/mL
- Growth of Bacillus coagulans (Bacillus coagulans; 1% MSM, 24 h): 10.30 log10 CFU/mL
- Growth of Bacillus coagulans (Bacillus coagulans; 1% MSM, 32 h): 11.42 log10 CFU/mL
- Growth of Bacillus coagulans (Bacillus coagulans; 1% MSM, 40 h): 11.02 log10 CFU/mL
- Growth of Bacillus coagulans (Bacillus coagulans; 1% MSM, 48 h): 10.38 log10 CFU/mL
- Growth of Bacillus coagulans (Bacillus coagulans; 1% MSM, 56 h): 10.86 log10 CFU/mL
- Growth of Bacillus coagulans (Bacillus coagulans; 1% MSM, 64 h): 10.40 log10 CFU/mL
- Growth of Bacillus coagulans (Bacillus coagulans; 1% MSM, 72 h): 10.70 log10 CFU/mL
- Growth of Bacillus coagulans (Bacillus coagulans; 5% MSM, 0 h): 1.56 log10 CFU/mL
- Growth of Bacillus coagulans (Bacillus coagulans; 5% MSM, 8 h): 4.61 log10 CFU/mL
- Growth of Bacillus coagulans (Bacillus coagulans; 5% MSM, 16 h): 7.56 log10 CFU/mL
- Growth of Bacillus coagulans (Bacillus coagulans; 5% MSM, 24 h): 10.48 log10 CFU/mL
- Growth of Bacillus coagulans (Bacillus coagulans; 5% MSM, 32 h): 11.55 log10 CFU/mL
- Growth of Bacillus coagulans (Bacillus coagulans; 5% MSM, 40 h): 10.85 log10 CFU/mL
- Growth of Bacillus coagulans (Bacillus coagulans; 5% MSM, 48 h): 10.22 log10 CFU/mL
- Growth of Bacillus coagulans (Bacillus coagulans; 5% MSM, 56 h): 11.1 log10 CFU/mL
- Growth of Bacillus coagulans (Bacillus coagulans; 5% MSM, 64 h): 10.75 log10 CFU/mL
- Growth of Bacillus coagulans (Bacillus coagulans; 5% MSM, 72 h): 11.81 log10 CFU/mL
- Growth of Bacillus coagulans (Bacillus coagulans; […] MSM, 0 h): 1.43 log10 CFU/mL
- Growth of Bacillus coagulans (Bacillus coagulans; […] MSM, 8 h): 5.13 log10 CFU/mL
- Growth of Bacillus coagulans (Bacillus coagulans; […] MSM, 16 h): 7.05 log10 CFU/mL
- Growth of Bacillus coagulans (Bacillus coagulans; […] MSM, 24 h): 10.22 log10 CFU/mL
- Growth of Bacillus coagulans (Bacillus coagulans; […] MSM, 32 h): 11.70 log10 CFU/mL
- Growth of Bacillus coagulans (Bacillus coagulans; […] MSM, 40 h): 10.55 log10 CFU/mL
- Growth of Bacillus coagulans (Bacillus coagulans; […] MSM, 48 h): 10.88 log10 CFU/mL
- Growth of Bacillus coagulans (Bacillus coagulans; […] MSM, 56 h): 10.86 log10 CFU/mL
- Growth of Bacillus coagulans (Bacillus coagulans; […] MSM, 64 h): 10.97 log10 CFU/mL
- Growth of Bacillus coagulans (Bacillus coagulans; […] MSM, 72 h): 11.05 log10 CFU/mL
